Results on four compounds are retold here after article PMC7254505 (ACS Omega, 2020).

One data set addresses T1, ALK2 (R206H) (Homo sapiens, UniProt Q04771, R206H).
T1 sequence (Q04771 21-509 R206H): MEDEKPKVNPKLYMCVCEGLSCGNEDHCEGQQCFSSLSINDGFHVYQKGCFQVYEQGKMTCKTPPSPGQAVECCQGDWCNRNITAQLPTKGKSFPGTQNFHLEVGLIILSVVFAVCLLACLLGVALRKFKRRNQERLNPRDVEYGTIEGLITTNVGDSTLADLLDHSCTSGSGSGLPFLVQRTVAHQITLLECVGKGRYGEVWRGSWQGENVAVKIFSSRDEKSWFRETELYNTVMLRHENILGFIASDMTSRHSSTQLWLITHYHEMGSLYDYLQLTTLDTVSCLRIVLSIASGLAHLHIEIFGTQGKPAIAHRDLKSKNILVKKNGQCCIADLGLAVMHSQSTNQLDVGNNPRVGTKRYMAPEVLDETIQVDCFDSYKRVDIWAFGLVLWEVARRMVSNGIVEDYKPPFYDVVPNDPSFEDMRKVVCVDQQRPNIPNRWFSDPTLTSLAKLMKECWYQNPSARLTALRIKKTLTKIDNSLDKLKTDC
Put plainly: In vitro enzyme assay. It is filed as biochemical.

Another data set is described as follows: Aqueous solubility. It is filed as physicochemical.
The nature of a further data set: Partition coefficient. It counts as physicochemical.
The next data set can be described thus: Plasma protein binding. It counts as in vitro ADME.
The target of the next data set is T2, CYP1A2 (Homo sapiens, UniProt P05177).
T2 sequence (P05177 1-516): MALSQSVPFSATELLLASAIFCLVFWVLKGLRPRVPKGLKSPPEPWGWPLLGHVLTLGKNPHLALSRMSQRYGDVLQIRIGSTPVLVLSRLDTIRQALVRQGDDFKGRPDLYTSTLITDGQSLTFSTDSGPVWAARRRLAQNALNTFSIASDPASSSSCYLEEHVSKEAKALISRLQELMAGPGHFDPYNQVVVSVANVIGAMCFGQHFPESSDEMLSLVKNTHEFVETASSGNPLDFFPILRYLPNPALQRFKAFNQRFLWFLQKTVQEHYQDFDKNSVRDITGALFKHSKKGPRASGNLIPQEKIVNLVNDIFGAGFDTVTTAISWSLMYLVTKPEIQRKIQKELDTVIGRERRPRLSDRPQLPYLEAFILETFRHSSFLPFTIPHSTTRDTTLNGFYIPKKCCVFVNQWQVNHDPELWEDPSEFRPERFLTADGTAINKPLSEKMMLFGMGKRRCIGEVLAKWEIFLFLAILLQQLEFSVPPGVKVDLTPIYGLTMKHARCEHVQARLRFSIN
In words: Cytochrome P450 inhibition, CYP1A2. It is filed as in vitro ADME.

The next data set deals with CYP2C9 (Homo sapiens, UniProt P11712). In words: Cytochrome P450 inhibition, CYP2C9. It is filed as in vitro ADME.
The target in the next data set is CYP2C19 (Homo sapiens, UniProt P33261). In words: Cytochrome P450 inhibition, CYP2C19. It counts as in vitro ADME.
Another data set concerns the target CYP2D6 (Homo sapiens, UniProt P10635). Put plainly: Cytochrome P450 inhibition, CYP2D6. It counts as in vitro ADME.
For the next data set, the target named is CYP3A4 (Homo sapiens, UniProt P08684). In words: Cytochrome P450 inhibition, CYP3A4. It counts as in vitro ADME.
The test system of the next data set is HepG2 cells. In words: In vitro toxicity, HepG2 cell viability. It is filed as cell-based.
The conditions of data set [1]: cited from earlier work.
The conditions of data set [2]: cited from earlier work. The source holds these as a separate data set.
The subject of a further data set is ALK2 over ALK5. As to conditions: cited from earlier work.

The term IC50 denotes the concentration that inhibits the measured activity by half. What is called aqueous solubility is the concentration that dissolves in the medium under given conditions.

CYP2D6, sequence (P10635 whole entry): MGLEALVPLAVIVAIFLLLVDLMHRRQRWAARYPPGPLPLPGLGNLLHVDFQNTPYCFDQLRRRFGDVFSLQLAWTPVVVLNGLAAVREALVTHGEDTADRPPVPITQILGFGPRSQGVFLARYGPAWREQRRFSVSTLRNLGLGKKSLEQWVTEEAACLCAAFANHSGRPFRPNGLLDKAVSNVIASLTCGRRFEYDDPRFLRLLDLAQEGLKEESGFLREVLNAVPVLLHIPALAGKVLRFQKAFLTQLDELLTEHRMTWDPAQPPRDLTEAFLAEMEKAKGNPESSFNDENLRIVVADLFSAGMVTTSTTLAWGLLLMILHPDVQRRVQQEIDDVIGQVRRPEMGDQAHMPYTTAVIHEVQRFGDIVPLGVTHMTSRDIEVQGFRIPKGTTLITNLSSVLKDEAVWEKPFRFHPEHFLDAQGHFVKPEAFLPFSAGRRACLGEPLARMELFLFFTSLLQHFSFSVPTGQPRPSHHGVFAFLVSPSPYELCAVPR
CYP2C19, sequence (P33261 whole entry): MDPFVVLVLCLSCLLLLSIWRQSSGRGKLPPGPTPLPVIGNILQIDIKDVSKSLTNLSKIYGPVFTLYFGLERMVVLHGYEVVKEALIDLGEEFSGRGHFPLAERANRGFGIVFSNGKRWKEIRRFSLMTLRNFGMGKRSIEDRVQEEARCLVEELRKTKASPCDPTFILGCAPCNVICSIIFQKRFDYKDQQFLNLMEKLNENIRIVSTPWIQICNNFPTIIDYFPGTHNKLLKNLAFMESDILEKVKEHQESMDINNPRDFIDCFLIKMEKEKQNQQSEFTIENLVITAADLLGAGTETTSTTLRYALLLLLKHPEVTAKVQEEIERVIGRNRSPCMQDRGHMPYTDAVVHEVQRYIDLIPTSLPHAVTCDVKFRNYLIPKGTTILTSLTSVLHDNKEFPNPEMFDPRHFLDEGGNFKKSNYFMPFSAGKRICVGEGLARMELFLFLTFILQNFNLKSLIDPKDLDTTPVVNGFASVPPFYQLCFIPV
CYP3A4, sequence (P08684 whole entry): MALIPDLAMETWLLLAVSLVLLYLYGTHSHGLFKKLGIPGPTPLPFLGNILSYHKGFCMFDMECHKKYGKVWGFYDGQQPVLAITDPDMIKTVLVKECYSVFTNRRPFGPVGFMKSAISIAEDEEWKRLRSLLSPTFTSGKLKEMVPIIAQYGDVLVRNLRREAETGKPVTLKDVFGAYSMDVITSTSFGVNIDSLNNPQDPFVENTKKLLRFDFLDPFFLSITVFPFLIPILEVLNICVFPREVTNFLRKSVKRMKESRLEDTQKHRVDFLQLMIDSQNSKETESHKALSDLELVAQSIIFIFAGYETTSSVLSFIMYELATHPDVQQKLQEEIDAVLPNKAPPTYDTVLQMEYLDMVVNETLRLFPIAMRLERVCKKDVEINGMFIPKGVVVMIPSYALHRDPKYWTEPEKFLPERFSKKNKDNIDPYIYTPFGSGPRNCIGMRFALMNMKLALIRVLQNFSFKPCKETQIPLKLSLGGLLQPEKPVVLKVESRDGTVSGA
CYP2C9, sequence (P11712 whole entry): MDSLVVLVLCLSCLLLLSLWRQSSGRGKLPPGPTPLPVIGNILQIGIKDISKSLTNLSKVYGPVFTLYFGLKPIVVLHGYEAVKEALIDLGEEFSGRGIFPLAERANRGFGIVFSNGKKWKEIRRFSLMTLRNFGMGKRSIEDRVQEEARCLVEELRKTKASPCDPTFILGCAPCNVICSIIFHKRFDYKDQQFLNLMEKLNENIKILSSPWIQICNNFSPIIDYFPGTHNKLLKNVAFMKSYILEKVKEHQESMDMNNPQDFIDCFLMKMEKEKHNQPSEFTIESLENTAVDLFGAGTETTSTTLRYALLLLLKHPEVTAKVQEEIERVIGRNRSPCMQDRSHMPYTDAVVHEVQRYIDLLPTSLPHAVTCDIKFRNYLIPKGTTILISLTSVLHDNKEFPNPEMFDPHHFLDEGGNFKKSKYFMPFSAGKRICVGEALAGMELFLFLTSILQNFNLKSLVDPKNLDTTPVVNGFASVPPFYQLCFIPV

In the case of `c1cncc(-c2n[nH]cc2-c2ccnc(Nc3ccc(N4CCNCC4)cc3)n2)c1` [Compound 1, N-[4-(Piperazin-1-yl)phenyl]-4-(3-pyridin-3-yl-1H-pyrazol-4-yl)pyrimidin-2-amine], the IC50 against ALK2 (R206H) came out at 47.9 nM.
`c1ccc2c(-c3cnn4cc(-c5ccc(N6CCNCC6)cc5)cnc34)ccnc2c1` [LDN-193189]: in “Aqueous solubility”, the “aqueous solubility at pH 7.4” value turned out to be 10.6 μg/mL. The “partition coefficient (log D, n-octanol/PBS, pH 7.4)” value in “Partition coefficient” was 2.26. Moreover, in the data set “Plasma protein binding”, the “PPB human (%) at 10 μM” value is recorded as 97.8%. Besides, at CYP1A2, the “CYP1A2 % inh. at 10 μM” value is 28%. Besides, the “CYP2C9 % inh. at 10 μM” value at CYP2C9 is reported as 30%. Also, the “CYP2C19 % inh. at 10 μM” value at CYP2C19 stood at 34%. Besides, the “CYP2D6 % inh. at 10 μM” value on CYP2D6 turned out to be 30%. Further, on CYP3A4, the “CYP3A4 % inh. at 10 μM” value came to 82%. Also, in the data set with HepG2 cells, the “in vitro toxicity HepG2 cell (% viability at 30 μM)” value was determined as 77%. Moreover, the “solubility in aqueous solutions (in words)” value in data set [1] is on record as “poorly soluble”. Moreover, the “binding to serum proteins (in words)” value in data set [2] is on record as “highly bound”.
As to `c1cc(-c2cnn3cc(-c4ccc(N5CCNCC5)cc4)cnc23)c2cccnc2c1` [LDN-212854], the “solubility in aqueous solutions (in words)” value in data set [1] is given as “poorly soluble”. Also, in [2], the “binding to serum proteins (in words)” value was “highly bound”.
Regarding `COc1cc(-c2cc(-c3ccc(N4CCNCC4)cc3)cnc2C)cc(OC)c1OC` [LDN-214117], the “selectivity for ALK2 over ALK5” value with ALK2 over ALK5 is recorded as “more than 100 fold”.
